Measured values: ChEMBL document CHEMBL2413072, “Synthesis and in vitro anticancer studies of novel C-2 arylidene congeners of lantadenes” (2013)

Key:
Format in all cases: functional
MCF7 = test: Growth inhibition of human MCF7 cells assessed as growth inhibition at 10 uM by sulforhodamine B assay; settings: read-out: GI
DU-145 = test: Growth inhibition of human DU145 cells assessed as growth inhibition at 10 uM by sulforhodamine B assay; settings: read-out: GI
UO-31 = test: Growth inhibition of human UO31 cells assessed as growth inhibition at 10 uM by sulforhodamine B assay; settings: read-out: GI
TK-10 = test: Growth inhibition of human TK10 cells assessed as growth inhibition at 10 uM by sulforhodamine B assay; settings: read-out: GI
SN12C = test: Growth inhibition of human SN12C cells assessed as growth inhibition at 10 uM by sulforhodamine B assay; settings: read-out: GI
CAKI-1 = test: Growth inhibition of human CAKI-1 cells assessed as growth inhibition at 10 uM by sulforhodamine B assay; settings: read-out: GI
A498 = test: Growth inhibition of human A498 cells assessed as growth inhibition at 10 uM by sulforhodamine B assay; settings: read-out: GI
786-0 = test: Growth inhibition of human 786-0 cells assessed as growth inhibition at 10 uM by sulforhodamine B assay; settings: read-out: GI
SK-OV-3 [1] = test: Growth inhibition of human SKOV3 cells assessed as growth inhibition at 10 uM by sulforhodamine B assay; settings: read-out: GI
MOLT-4 [2] = test: Growth inhibition of human MOLT4 cells assessed as cell growth at 10 uM by sulforhodamine B assay; settings: read-out: Activity
HL-60(TB) = test: Growth inhibition of human HL-60(TB) cells assessed as cell growth at 10 uM by sulforhodamine B assay; settings: read-out: Activity
IGROV-1 [3] = test: Growth inhibition of human IGROV1 cells assessed as growth inhibition at 10 uM by sulforhodamine B assay; settings: read-out: GI
UACC-257 = test: Growth inhibition of human UACC257 cells assessed as growth inhibition at 10 uM by sulforhodamine B assay; settings: read-out: GI
SK-MEL-28 [4] = test: Growth inhibition of human SK-MEL-28 cells assessed as growth inhibition at 10 uM by sulforhodamine B assay; settings: read-out: GI
MDA-MB-435 [5] = test: Growth inhibition of human MDA-MB-435 cells assessed as growth inhibition at 10 uM by sulforhodamine B assay; settings: read-out: GI
M14 [6] = test: Growth inhibition of human M14 cells assessed as growth inhibition at 10 uM by sulforhodamine B assay; settings: read-out: GI
SF-539 = test: Growth inhibition of human SF539 cells assessed as growth inhibition at 10 uM by sulforhodamine B assay; settings: read-out: GI
SF-268 = test: Growth inhibition of human SF268 cells assessed as growth inhibition at 10 uM by sulforhodamine B assay; settings: read-out: GI
SW-620 [7] = test: Growth inhibition of human SW620 cells assessed as growth inhibition at 10 uM by sulforhodamine B assay; settings: read-out: GI
KM12 [8] = test: Growth inhibition of human KM12 cells assessed as growth inhibition at 10 uM by sulforhodamine B assay; settings: read-out: GI
NCI-H460 = test: Growth inhibition of human NCI-H460 cells assessed as growth inhibition at 10 uM by sulforhodamine B assay; settings: read-out: GI
NCI-H322M = test: Growth inhibition of human NCI-H322M cells assessed as growth inhibition at 10 uM by sulforhodamine B assay; settings: read-out: GI
NCI-H226 [9] = test: Growth inhibition of human NCI-H226 cells assessed as growth inhibition at 10 uM by sulforhodamine B assay; settings: read-out: GI
HOP-92 [10] = test: Growth inhibition of human HOP92 cells assessed as growth inhibition at 10 uM by sulforhodamine B assay; settings: read-out: GI
HOP-62 = test: Growth inhibition of human HOP62 cells assessed as growth inhibition at 10 uM by sulforhodamine B assay; settings: read-out: GI
[11] = Growth inhibition of human EKVX cells assessed as growth inhibition at 10 uM by sulforhodamine B assay; settings: read-out: GI
MOLT-4 [12] = test: Growth inhibition of human MOLT4 cells assessed as growth inhibition at 10 uM by sulforhodamine B assay; settings: read-out: GI
T47D = test: Growth inhibition of human T47D cells assessed as cell growth at 10 uM by sulforhodamine B assay; settings: read-out: Activity
BT-549 = test: Growth inhibition of human BT549 cells assessed as cell growth at 10 uM by sulforhodamine B assay; settings: read-out: Activity
MDA-MB-231 = test: Growth inhibition of human MDA-MB-231 cells assessed as cell growth at 10 uM by sulforhodamine B assay; settings: read-out: Activity
ACHN = test: Growth inhibition of human ACHN cells assessed as cell growth at 10 uM by sulforhodamine B assay; settings: read-out: Activity
SK-OV-3 [13] = test: Growth inhibition of human SKOV3 cells assessed as cell growth at 10 uM by sulforhodamine B assay; settings: read-out: Activity
OVCAR-5 = test: Growth inhibition of human OVCAR5 cells assessed as cell growth at 10 uM by sulforhodamine B assay; settings: read-out: Activity
IGROV-1 [14] = test: Growth inhibition of human IGROV1 cells assessed as cell growth at 10 uM by sulforhodamine B assay; settings: read-out: Activity
SK-MEL-5 = test: Growth inhibition of human SK-MEL-5 cells assessed as cell growth at 10 uM by sulforhodamine B assay; settings: read-out: Activity
SK-MEL-28 [15] = test: Growth inhibition of human SK-MEL-28 cells assessed as cell growth at 10 uM by sulforhodamine B assay; settings: read-out: Activity
SK-MEL-2 = test: Growth inhibition of human SK-MEL-2 cells assessed as cell growth at 10 uM by sulforhodamine B assay; settings: read-out: Activity
M14 [16] = test: Growth inhibition of human M14 cells assessed as cell growth at 10 uM by sulforhodamine B assay; settings: read-out: Activity
MDA-MB-435 [17] = test: Growth inhibition of human MDA-MB-435 cells assessed as cell growth at 10 uM by sulforhodamine B assay; settings: read-out: Activity
Malme-3M = test: Growth inhibition of human MALME-3M cells assessed as cell growth at 10 uM by sulforhodamine B assay; settings: read-out: Activity
U-251 = test: Growth inhibition of human U251 cells assessed as cell growth at 10 uM by sulforhodamine B assay; settings: read-out: Activity
SNB-19 = test: Growth inhibition of human SNB19 cells assessed as cell growth at 10 uM by sulforhodamine B assay; settings: read-out: Activity
SW-620 [18] = test: Growth inhibition of human SW620 cells assessed as cell growth at 10 uM by sulforhodamine B assay; settings: read-out: Activity
KM12 [19] = test: Growth inhibition of human KM12 cells assessed as cell growth at 10 uM by sulforhodamine B assay; settings: read-out: Activity
HCT-15 = test: Growth inhibition of human HCT15 cells assessed as cell growth at 10 uM by sulforhodamine B assay; settings: read-out: Activity
COLO 205 = test: Growth inhibition of human COLO205 cells assessed as cell growth at 10 uM by sulforhodamine B assay; settings: read-out: Activity
NCI-H226 [20] = test: Growth inhibition of human NCI-H226 cells assessed as cell growth at 10 uM by sulforhodamine B assay; settings: read-out: Activity
HOP-92 [21] = test: Growth inhibition of human HOP92 cells assessed as cell growth at 10 uM by sulforhodamine B assay; settings: read-out: Activity
RPMI-8226 = test: Growth inhibition of human RPMI8226 cells assessed as cell growth at 10 uM by sulforhodamine B assay; settings: read-out: Activity

COc1cc(/C=C2\C[C@]3(C)[C@H]4CC=C5[C@@H]6CC(C)(C)C[C@@H](O)[C@]6(C(=O)O)CC[C@@]5(C)[C@]4(C)CC[C@H]3C(C)(C)C2=O)ccc1O
inhibition of growth at 10 µM (MCF7): 22.5% | inhibition of growth at 10 µM (DU-145): < 10% | inhibition of growth at 10 µM (UO-31): 24.1% | inhibition of growth at 10 µM (TK-10): < 10% | inhibition of growth at 10 µM (SN12C): 12.5% | inhibition of growth at 10 µM (CAKI-1): 21.2% | inhibition of growth at 10 µM (A498): < 10% | inhibition of growth at 10 µM (786-0): < 10% | inhibition of growth at 10 µM (SK-OV-3 [1]): < 10% | growth at 10 µM (MOLT-4 [2]): 63.3% | growth at 10 µM (HL-60(TB)): 71.1% | inhibition of growth at 10 µM (IGROV-1 [3]): < 10% | inhibition of growth at 10 µM (UACC-257): < 10% | inhibition of growth at 10 µM (SK-MEL-28 [4]): < 10% | inhibition of growth at 10 µM (MDA-MB-435 [5]): < 10% | inhibition of growth at 10 µM (M14 [6]): < 10% | inhibition of growth at 10 µM (SF-539): < 10% | inhibition of growth at 10 µM (SF-268): < 10% | inhibition of growth at 10 µM (SW-620 [7]): < 10% | inhibition of growth at 10 µM (KM12 [8]): 16% | inhibition of growth at 10 µM (NCI-H460): < 10% | inhibition of growth at 10 µM (NCI-H322M): < 10% | inhibition of growth at 10 µM (NCI-H226 [9]): < 10% | inhibition of growth at 10 µM (HOP-92 [10]): 29.1% | inhibition of growth at 10 µM (HOP-62): < 10% | inhibition of growth at 10 µM [11]: 11.5% | inhibition of growth at 10 µM (MOLT-4 [12]): 36.7% | growth at 10 µM (T47D): 81.1% | growth at 10 µM (BT-549): 106% | growth at 10 µM (MDA-MB-231): 97.9% | growth at 10 µM (ACHN): 85.6% | growth at 10 µM (SK-OV-3 [13]): 99.2% | growth at 10 µM (OVCAR-5): 105% | growth at 10 µM (IGROV-1 [14]): 97.8% | growth at 10 µM (SK-MEL-5): 88.1% | growth at 10 µM (SK-MEL-28 [15]): 90.6% | growth at 10 µM (SK-MEL-2): 100% | growth at 10 µM (M14 [16]): 103% | growth at 10 µM (MDA-MB-435 [17]): 97.7% | growth at 10 µM (Malme-3M): 81.1% | growth at 10 µM (U-251): 84.7% | growth at 10 µM (SNB-19): 97% | growth at 10 µM (SW-620 [18]): 108% | growth at 10 µM (KM12 [19]): 84% | growth at 10 µM (HCT-15): 76.5% | growth at 10 µM (COLO 205): 94.8% | growth at 10 µM (NCI-H226 [20]): 100% | growth at 10 µM (HOP-92 [21]): 70.9% | growth at 10 µM (RPMI-8226): 59.5%
